These results are taken from publication PMC11435625, “In Vitro Hepatic Clearance Evaluations of Per- and Polyfluoroalkyl Substances (PFAS) across Multiple Structural Categories” (Toxics, 2024).

The nature of data set [1]: IVIVE: steady-state concentration (Css), generic HTTK model. More on the design: species or system human. Conditions: for Css (mg/L) / Css (uM): Assuming 1 mg/kg/day dose rate, BW 70 kg; for CLhep: QL 1500000 uL/min; for Fub: fub=fup/(B:P), Fub set to 1 if needed; for CLint: scaled to whole liver: HPGL 110 mill cells/g, Vl 1596 g. On the procedure:
IVIVE was performed as previously described to calculate human steady-state concentrations (Css). Briefly, experimental plasma protein binding data presented elsewhere were transformed to fraction unbound in blood using blood-to-plasma partitioning values. Experimental Clint values generated here are used in conjunction with relevant liver scalars to scale up to estimate whole liver clearance. […] Once Css values were established, these were used with the PFAS-specific in vitro POD data to calculate the administered equivalent doses (AEDs) using reverse dosimetry. […] The fifth-percentile AC50 value was used to define the in vitro POD. All relevant inputs, scalars, and calculations are provided in Supplementary Information, as indicated in the results.

For data set [2], the system named is pooled primary human hepatocyte suspensions. Put plainly: Hepatic clearance assay (substrate depletion, LC-MS). As to conditions: in µL/min/10^6 cells; for CLint for HTTK: CLint value carried into HTTK/IVIVE; for in vitro CLint exp assay / Unadj Clint: pooled primary human hepatocyte suspensions; for Unadj Clint: unadjusted hepatic intrinsic clearance, Table S4. As for the experimental part:
The rate of hepatic clearance was determined as previously described for a set of PFAS [11]. Analysis was conducted across two laboratories at the Division of Translational Toxicology (DTT) at the National Institute of Environmental Health Sciences (NIEHS) and the Center for Computational Toxicology and Exposure at the USEPA. The PFAS analyzed in each lab can be found in the Supplementary Materials.
The hepatic clearance assay was performed at both the DTT and EPA laboratories as described below. The pooled human hepatocyte suspensions used in this work were purchased commercially and meet the ethical and scientific standards described in the Human Ethics Rule (40 CFR 26). The suspensions were prepared from hepatocytes obtained from de-identified donors by a commercial vendor.
PFAS stock solutions prepared in DMSO were added to prewarmed William’s E medium to make a 2X working stock solution (2 µM). […] The working stock solutions were then transferred to a 96-well polypropylene plate and placed in an incubator at 37 °C with 5% carbon dioxide prior to adding cells. Cryopreserved pooled primary human hepatocyte suspensions (50-donor pool, mixed gender; BioIVT; Westbury, NY, USA) were thawed and transferred to vials containing hepatocyte thawing medium. After centrifuging for 5–10 min at 100× g, thawing medium was removed, being careful not to disturb the cell pellet. The primary human hepatocytes were then resuspended in pre-warmed complete Williams E medium to achieve a cell density of ~1.0 × 10^6 viable cells/mL as determined by Trypan Blue exclusion. Cells were then added to the 96-well incubation plates containing PFAS to achieve a final density of ~0.5 × 10^6 viable cells/mL and a 1 μM assay concentration (Ctest), then placed in incubator on a shaker at 300 rpm. Triplicate samples were removed from the incubator at time points ranging from 0 to 240 min and quenched with a total crash in 2–3 volumes of ice-cold acetonitrile. Samples were spun at 4000× g for 20 min, and supernatants were transferred to new tubes and stored at <−70 °C until analysis. Media-only (no cell) and/or heat-inactivated hepatocytes were included as negative controls for each chemical to evaluate and estimate chemical loss due to nonmetabolic processes (e.g., hydrolysis). Phenacetin was included in all runs as an assay reference compound; EPA also included propranolol as an additional reference compound.
Assay samples were diluted in mobile phase and analyzed using a Thermo Vanquish UPLC system with a Thermo Hypersil Gold aQ C18 column (100 × 2.1 mm, 1.9 […], Thermo Fisher Scientific Inc.) coupled to a Q Exactive Plus mass spectrometer. Gradient elution was used in the chromatographic separations using water with 20 mM ammonium acetate (mobile phase A) and methanol (mobile phase B), with the following gradient program: 0.5–7 min, 30%–90% B; 7–8 min, 90% B; 8–9 min, 90%–30% B; and 9–10 min, 30% B. The first minute of each injection was diverted to waste to avoid introduction of excessive salts from incubation medium. Analysis was detected in negative ion mode. Samples were quantified against an external, matrix-matched calibration curve. Additional methodologic information is available in Table S2.
To perform SPE, a positive-pressure manifold was employed along with Oasis WAX µElution plates and Oasis HLB 30 mg plates (Waters, Milford, MA, USA) for PFAS and positive-control extraction, respectively. […] The sorbent was then washed with 1% formic acid and water. Samples were eluted in 2% ammonia in methanol for analysis. Similarly, HLB plates were conditioned with methanol and water before sample was loaded onto the sorbent. The wells were then washed with 5% methanol in water and water before elution in methanol. For samples not undergoing SPE, the supernatant of the crashed assay sample was diluted in mobile phase prior to analysis. The first 1.5 min of the run was diverted to waste to prevent salt contamination.

For another data set, the system named is plasma protein. Conditions: fraction unbound in plasma, input for IVIVE calculations; cited from earlier work.

For the compound `O=C(O)CCC(F)(F)C(F)(F)C(F)(F)F`, in data set [1], the “Css (mg/L)” value is listed as 4.66 mg/L, the “Css (uM)” value was found to be 19.25 µM, the “CLhep” value is 0.000 L/h and the Fub stood at 0.09418. Also, the “CLint” value in data set [1] is 0 µL/min. Further, in data set [2], the “CLint for HTTK” value was determined as 0 and the “in vitro CLint exp assay” value came to 0. In addition, the Mean fu with plasma protein was 0.0518.
As for `O=C(Cl)C(F)(F)C(F)(F)C(F)(F)C(F)(F)C(F)(F)C(F)(F)C(F)(F)F`, in data set [1], the “Css (mg/L)” value is listed as 3584.17 mg/L, the “Css (uM)” value was found to be 8297.84 µM, the “CLhep” value stood at 0.000 L/h and the Fub is listed as 0.0001224. In addition, the “CLint” value in data set [1] is 0 µL/min. In data set [2], the “CLint for HTTK” value was 0 and the “in vitro CLint exp assay” value stood at 0. The Mean fu in the data set on plasma protein is recorded as 0.0001.
For the compound `O=C(O)C(F)(F)C(F)(F)OC(F)(F)F`, in data set [1], the “Css (mg/L)” value is listed as 3.16 mg/L, the “Css (uM)” value is 13.74 µM, the “CLhep” value is 0.000 L/h and the Fub is 0.1389. The “CLint” value in data set [1] is listed as 0 µL/min. Moreover, in data set [2], the “CLint for HTTK” value is 0 and the “in vitro CLint exp assay” value turned out to be 0. Also, the Mean fu in the data set on plasma protein is listed as 0.0764.
As to `O=C(O)C(F)(F)C(F)(F)C(F)F` [4H-Perfluorobutanoic acid], the “Unadj Clint” value in data set [2] is listed as 0.90.
For the compound `O=C(O)CCC(F)(F)C(F)(F)C(F)(F)C(F)(F)C(F)(F)C(F)(F)F` [6:3 Fluorotelomer carboxylic acid], the “Unadj Clint” value in data set [2] is on record as 5.05.
As to `N.O=C(O)C(F)(F)C(F)(F)C(F)(F)C(F)(F)C(F)(F)C(F)(F)C(F)(F)F` [Ammonium perfluorooctanoate], the “Unadj Clint” value in data set [2] is reported as 2.06.
On the same count and under the same terms, for `O=C(O)C(F)(F)C(F)(F)C(F)(F)OC(F)(F)F` [Perfluoro(4-methoxybutanoic) acid] the value was 1.50.
The same measure, in the same setting: for `O=S(=O)(Cl)C(F)(F)C(F)(F)C(F)(F)C(F)(F)C(F)(F)C(F)(F)C(F)(F)C(F)(F)F` [Perfluoro-1-octanesulfonyl chloride] the value was 0.00; for `O=C(O)C(F)(F)OC(F)(F)C(F)(F)OC(F)(F)F` [Perfluoro-3,6-dioxaheptanoic acid], 0.00; for `O=C(O)C(F)(F)C(F)(F)C(F)(F)F` [Perfluorobutanoic acid], 0.08.
Still for that read-out and setting: for `O=C(O)C(F)(F)C(F)(F)F` [Perfluoropropanoic acid] the value was 0.59.
With `O=C(O)C(F)(F)C(F)(F)C(F)(F)C(F)(F)C(F)(F)C(F)(F)C(F)(F)C(F)(F)C(F)(F)C(F)(F)C(F)(F)C(F)(F)C(F)(F)F` [Perfluorotetradecanoic acid], in data set [2], the “Unadj Clint” value is on record as 0.00.
`O=C(O)C(F)(F)C(F)(F)C(F)(F)C(F)(F)C(F)(F)C(F)(F)C(F)(F)C(F)(F)C(F)(F)C(F)(F)F` [Perfluoroundecanoic acid]: the “Unadj Clint” value in data set [2] is recorded as 0.00.
Turning to `O=S(=O)([O-])C(F)(F)C(F)(F)C(F)(F)C(F)(F)F.[K+]` [Potassium perfluorobutanesulfonate], the “Unadj Clint” value in data set [2] is recorded as 0.00.
`O=S(=O)([O-])C(F)(F)C(F)(F)C(F)(F)C(F)(F)C(F)(F)C(F)(F)C(F)(F)C(F)(F)F.[K+]` [Potassium perfluorooctanesulfonate]: the “Unadj Clint” value in data set [2] is listed as 2.96.
`O=C([O-])C(F)(F)C(F)(F)C(F)(F)C(F)(F)C(F)(F)C(F)(F)C(F)(F)F.[K+]` [Potassium perfluorooctanoate]: in data set [2], the “Unadj Clint” value is 0.00.
The same measure, in the same setting: for `O=S(=O)([O-])C(F)(F)C(F)(F)C(F)(F)C(F)(F)C(F)(F)C(F)(F)C(F)(F)C(F)(F)C(F)(F)C(F)(F)F.[Na+]` [Sodium perfluorodecanesulfonate] the value was 3.39.
On to `O=C(O)C(F)(F)C(F)(F)C(F)(F)C(F)(F)C(F)(F)C(F)(F)C(F)(F)F` [Sodium perfluorooctanoate], for which the “Unadj Clint” value in data set [2] is reported as 2.34.
